PubChem BioAssay AID504646 (Southern Research Specialized Biocontainment Screening …, 2011)
Active and inactive are the calls of the source. How the calls were made is not given here.

system: Mycobacterium tuberculosis growth in 7H9 media; assay: M. tuberculosis growth inhibition in 7H9, dose response, 7H9 media, purified and synthesized samples, set 3 (AID 504646); conditions: not given

| SMILES | IC50 [µM] |
| --- | --- |
| CC(=O)c1ccc(NC(=O)c2ccc(CNc3c(N4CCOCC4)c(=O)c3=O)cc2)cc1 | 12.4 |
| O=C(/C=C/c1ccccc1)N1CCN(CCN2C(=O)c3cccc4cccc(c34)C2=O)CC1 | 2.16 |
| CCOc1ccc(-c2cc(C)[n+](CCc3ccc(OC)c(OC)c3)c(-c3ccc(OCC)cc3)c2)cc1 | 0.6 |
| COC(=O)CSc1ncnc2c1cnn2-c1ccc(C)cc1C | 4.72 |
| CC1CC(C)CN(C(=O)c2ccc(CNc3c(N4CCCC4)c(=O)c3=O)cc2)C1 (centres undefined) | 5.14 |
| CCOC(=O)COc1ccc(/C=C2\NC(=S)N(CC)C2=O)cc1 | 1.94 |
| CCc1c(C)nc(SCC(=O)NC2CCCC2)[nH]c1=O | 1.5 |

same assay, conditions: 90% growth inhibition concentration

| SMILES | IC90 [µM] |
| --- | --- |
| CC(=O)c1ccc(NC(=O)c2ccc(CNc3c(N4CCOCC4)c(=O)c3=O)cc2)cc1 | > 25 |
| O=C(/C=C/c1ccccc1)N1CCN(CCN2C(=O)c3cccc4cccc(c34)C2=O)CC1 | 4.97 |
| CCOc1ccc(-c2cc(C)[n+](CCc3ccc(OC)c(OC)c3)c(-c3ccc(OCC)cc3)c2)cc1 | 0.9 |
| COC(=O)CSc1ncnc2c1cnn2-c1ccc(C)cc1C | 7.3 |
| CC1CC(C)CN(C(=O)c2ccc(CNc3c(N4CCCC4)c(=O)c3=O)cc2)C1 (centres undefined) | > 25 |
| CCOC(=O)COc1ccc(/C=C2\NC(=S)N(CC)C2=O)cc1 | 3.7 |
| CCc1c(C)nc(SCC(=O)NC2CCCC2)[nH]c1=O | 2.85 |

system: not listed separately; assay: as above; conditions: Mycobacterium tuberculosis growth in 7H9 media; at 25 µM (top of the series)

| SMILES | growth inhibition |
| --- | --- |
| Cc1c[nH]c(=S)[nH]c1=O | -6.2% (inactive) |
| Cc1cc(=O)[nH]c(SCC(=O)Nc2ncc(S(=O)(=O)c3ccc([N+](=O)[O-])cc3)s2)n1 | -1.38% (inactive) |
| CN(C(=O)CSc1nc2ccccc2c(=O)[nH]1)C1CCCCC1 | -6.94% (inactive) |
| COc1ccc(-c2noc(CSc3nc(N)c(-c4ccccc4)c(=O)[nH]3)n2)cc1OC | -5.09% (inactive) |
| Cc1nc(SCc2ccccc2Cl)[nH]c(=O)c1C | -6.95% (inactive) |
| CCOC(=O)N1CCC(Nc2c(N3CCN(c4cccc(C(F)(F)F)c4)CC3)c(=O)c2=O)CC1 | -1.75% (inactive) |
| CCOC(=O)C(CC)Sc1ncnc2c1nnn2-c1ccc(F)cc1 (centres undefined) | 12.2% (inactive) |
| CCOc1ccc2nc(NC(=O)C(CC)Sc3nc(C)cc(=O)[nH]3)sc2c1 (centres undefined) | 2.52% (inactive) |
| Cc1ccc(NC(=O)CSc2nc(N)cc(=O)[nH]2)cc1Cl | 2.55% (inactive) |
| CCOc1ccc(NC(=O)CSc2nc(N)c(-c3ccccc3)c(=O)[nH]2)cc1 | 0.19% (inactive) |
| COC(=O)C(Nc1nc(SCC(=O)NC2CCCCC2)nc2ccccc12)c1ccccc1 (centres undefined) | -0.22% (inactive) |
| COC(=O)c1ccc(CNc2c(N3CCCC3)c(=O)c2=O)cc1 | -13.4% (inactive) |
| Cc1cc(=O)[nH]c(=S)[nH]1 | -1.28% (inactive) |
| CCC(Sc1nc(=O)cc(N)n1-c1ccccc1)C(=O)Nc1cc(C)on1 (centres undefined) | -3.83% (inactive) |
| Cc1[nH]c(=S)[nH]c(=O)c1C | -8.11% (inactive) |
| C=CCn1c(SCC(=O)Nc2cccc3ccccc23)nc(O)c(CC)c1=O | 26.9% (inactive) |
| CCOC(=O)CSc1nc(C)c(C)c(=O)[nH]1 | -7.78% (inactive) |
| CC1CCN(C(=O)CSc2nc3ccccc3c(=O)[nH]2)CC1 | 2.14% (inactive) |
| CCOC(=O)N1CCC(Nc2c(Nc3cccc(CC)c3)c(=O)c2=O)CC1 | 17.3% (inactive) |
| CCOc1ccc(NC(=O)c2ccc(CNc3c(N4CCCC4)c(=O)c3=O)cc2)cc1 | 0.32% (inactive) |

| SMILES | growth inhibition |
| --- | --- |
| COc1ccc(NC(=O)CSc2nc(NS(=O)(=O)c3ccc(C)cc3)cc(=O)[nH]2)cc1 | 1.44% (inactive) |
| CCc1c(O)nc(SCC(=O)Nc2ccc(OC)cc2)n(C2CCCCC2)c1=O | -2.19% (inactive) |
| Cc1[nH]c2ccccc2c1C(=O)COC(=O)c1ccc([N+](=O)[O-])s1 | -5.99% (inactive) |
| CCCc1cc(=O)[nH]c(SCC(=O)Nc2cc3c(cc2C(C)=O)OCO3)n1 | 3.07% (inactive) |
| Cc1nc(SCC(N)=O)[nH]c(=O)c1C | -2.97% (inactive) |
| O=C(C1CCC(CNc2c(N3CCCCC3)c(=O)c2=O)CC1)N1CCCCC1 (centres undefined) | -2.59% (inactive) |
| CCSc1nc(C)c(C)c(=O)[nH]1 | 1.07% (inactive) |
| CCSc1nc2ccccc2c(=O)[nH]1 | -4.76% (inactive) |
| Nc1cc(=O)[nH]c(SCC(=O)Nc2ccccc2-c2ccccc2)n1 | -1.58% (inactive) |
| Oc1ccccc1/C=N/Nc1ccnc(SCc2ccccc2)n1 | 2.73% (inactive) |
| Cc1cc(C)cc(NC(=O)CSc2nc3c(c(=O)[nH]2)CN(Cc2ccc(F)cc2)CC3)c1 | -0.33% (inactive) |
| Cc1ccc(NC(=O)CSc2nc(N)c(-c3ccccc3)c(=O)[nH]2)cc1Cl | -2.34% (inactive) |
| O=C(CSc1ccccn1)NC1CCCCC1 | -4.91% (inactive) |
| Nc1cc(=O)[nH]c(SCC(=O)Nc2ccc(Oc3ccccc3)cc2)n1 | -0.36% (inactive) |
| O=C(CSc1ncccn1)NC1CCCCC1 | -5.77% (inactive) |
| CCc1cc(=O)[nH]c(SCC(=O)Nc2ccc3c(c2)OCCO3)n1 | 3.59% (inactive) |
| Cc1cccc(N2CCN(C(=O)c3ccc(CNc4c(N5CCC(C)CC5)c(=O)c4=O)cc3)CC2C)c1 (centres undefined) | -1.5% (inactive) |
| CC(NC(=O)CSc1nc2ccccc2c(=O)[nH]1)c1ccccc1 (centres undefined) | -9.84% (inactive) |
| O=c1[nH]c(=S)[nH]c2ccccc12 | -8.06% (inactive) |
| Cc1nc(SCC(=O)N(C)c2ccccc2)[nH]c(=O)c1C | -13.6% (inactive) |
